Laboratory results: patent publication US20220073532A1, “INHIBITORS OF CGAS ACTIVITY AS THERAPEUTIC AGENTS” (BELLBROOK LABS, LLC, priority 2019, published 2022)
Like-named read-outs stand apart in the source and are kept apart here.

Target: cGAS (Homo sapiens, UniProt Q8N884)
Assay: cGAS enzymatic assay (FP/TR-FRET detection of cGAMP)
Type: biochemical
Set-up: The cGAS assay was used to screen 100,000 compounds with full-length human cGAS; 6xHis; made in house
Details: cGAS (30 nM)
Method: Some exemplary compounds of the disclosure were tested for inhibition of cGAS (30 nM). The results are provided in Table 1 where “A” indicates an IC50 of less than 100 nM, “B” indicates an IC50 of greater than 100 nM and less than 500 nM, “C” indicates an IC50 of greater than 500 nM and less than 1 μM, “D” indicates an IC50 of greater than 1 μM and less than 10 μM, and “E” indicates an IC50 of greater than 10 μM.
A homogenous cGAS enzymatic assay was developed with fluorescence polarization (FP) and time-resolved Forster resonance energy transfer (TR-FRET) readouts (FIG. 2A-2D). The cGAS assay was used to screen 100,000 compounds with full-length human cGAS (FIG. 2E), resulting in the identification of the novel chemotype of the disclosure, two of which are further developed in a structure-driven hit-to-lead study (Table 3, below). The assay performance was robust, as indicated by respective Z and Z′ values of 0.59 and 0.63 in the screen; compounds with polarization values greater than three SDs from the mean were considered hits; a scatterplot from 10 plates (3,200 compounds) is shown in FIG. 2D.
Biochemical and biophysical analysis: Potency and MOA studies, including Mn^2+ sensitivity, are performed using the cGAS enzymatic assay. Dose response experiments are used to determine IC50 values under basal conditions (5 mM MgCl2, 100 μM ATP/GTP), and with the addition of physiological levels of Mn (0.2 mM) using human and mouse cGAS. Ligand optimization is driven by potency with the human enzyme; potency with mouse cGAS informs selection of an appropriate disease model for efficacy studies. Competition with ATP and GTP is assessed by comparing basal IC50 values to those in the presence of saturating ATP or GTP, and subsequently confirmed by measuring velocity vs. substrate at varying ATP or GTP levels. Inhibitor residence times (1/koff) are used as a key parameter for prioritizing compounds and driving SAR, because a longer residence time often results from an allosteric mechanism, and can also correlate with improved cellular activity. The cGAS enzymatic assay is used with the jump dilution method to measure residence times (inhibitor dissociation rates), as described for kinases using the very similar ADP assay. Biophysical methods, including SPR and TSA, are used as orthologous methods for residence time measurements and kd estimates.

[1] = with Mn^2+, read-out: Inhibition cGAS + Mn^2+

Sequence of cGAS (Q8N884 whole entry): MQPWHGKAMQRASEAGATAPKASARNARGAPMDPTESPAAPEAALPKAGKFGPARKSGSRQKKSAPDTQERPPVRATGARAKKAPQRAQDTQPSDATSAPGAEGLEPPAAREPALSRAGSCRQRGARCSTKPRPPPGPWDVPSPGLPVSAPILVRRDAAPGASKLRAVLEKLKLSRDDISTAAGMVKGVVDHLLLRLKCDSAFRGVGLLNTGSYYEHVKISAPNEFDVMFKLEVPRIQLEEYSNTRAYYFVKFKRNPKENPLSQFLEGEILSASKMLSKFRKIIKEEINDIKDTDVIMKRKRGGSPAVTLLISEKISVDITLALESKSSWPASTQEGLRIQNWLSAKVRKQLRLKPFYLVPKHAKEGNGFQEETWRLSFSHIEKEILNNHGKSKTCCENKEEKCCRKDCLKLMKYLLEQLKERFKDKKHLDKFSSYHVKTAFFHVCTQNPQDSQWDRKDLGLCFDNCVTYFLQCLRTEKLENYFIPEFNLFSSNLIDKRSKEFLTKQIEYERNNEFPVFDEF

| Structure (SMILES) | IC50 [1] [nM] | IC50 (read-out: Inhibition cGAS) [nM] | Inhibition cGAS |
| --- | --- | --- | --- |
| COc1nc(N2CCC[C@H]2C(=O)O)c2oc3ccccc3c2n1 [Compound 20, (2-methoxybenzofuro[3,2-d]pyrimidin-4-yl)-L-proline] | 1000 to 10000 | 500 to 1000 | – |
| Cc1nc(N2C[C@@H](Cc3nn[nH]n3)C[C@H]2C(=O)O)c2oc3ccccc3c2n1 [Compound 25, (2S,4R)-4-((1H-tetrazol-5-yl)methyl)-1-(2-methylbenzofuro[3,2-d]pyrimidin-4-yl)pyrrolidine-2-carboxylic acid] | – | < 100 | – |
| CCc1nc(N2CCC[C@H]2C(=O)NS(=O)(=O)N(C)C)c2oc3ccccc3c2n1 [Compound 14, (S)-N-(N,N-dimethylsulfamoyl)-1-(2-ethylbenzofuro[3,2-d]pyrimidin-4-yl)pyrrolidine-2-carboxamide] | > 10000 | > 10000 | – |
| Cc1nc(N2C[C@@H](CC(=O)Nc3ccccc3)C[C@H]2C(=O)O)c2oc3ccccc3c2n1 [Compound 52, (2S,4R)-1-(2-methylbenzofuro[3,2-d]pyrimidin-4-yl)-4-(2-oxo-2-(phenylamino)ethyl)pyrrolidine-2-carboxylic acid] | 1000 to 10000 | 100 to 500 | – |
| CCc1nc(N2CCC[C@H]2C(=O)O)c2oc3ccccc3c2n1 [Compound 7, (2-ethylbenzofuro[3,2-d]pyrimidin-4-yl)-L-proline] | 1000 to 10000 | 1000 to 10000 | – |
| Cc1nc(N2C[C@@H](NC(=O)[C@H]3CN3)C[C@H]2C(=O)O)c2oc3ccccc3c2n1 [Compound 44, (2S,4S)-4-((R)-aziridine-2-carboxamido)-1-(2-methylbenzofuro[3,2-d]pyrimidin-4-yl)pyrrolidine-2-carboxylic acid] | – | 1000 to 10000 | – |
| Cc1nc(N2C[C@@H](Nc3cccnc3)C[C@H]2C(=O)O)c2oc3ccccc3c2n1 [Compound 39, (2S,4S)-1-(2-methylbenzofuro[3,2-d]pyrimidin-4-yl)-4-(pyridin-3-ylamino)pyrrolidine-2-carboxylic acid] | – | – | B, D |
| Cc1nc(N2CC[C@H]2C(=O)O)c2oc3ccccc3c2n1 [Compound 68, (S)-1-(2-methylbenzofuro[3,2-d]pyrimidin-4-yl)azetidine-2-carboxylic acid] | 1000 to 10000 | 500 to 1000 | – |
| CC(C)c1nc(N2CCC[C@H]2C(=O)O)c2oc3ccccc3c2n1 [Compound 9, (2-isopropylbenzofuro[3,2-d]pyrimidin-4-yl)-L-proline] | > 10000 | 1000 to 10000 | – |
| Cc1nc(N2[C@H](C(=O)O)C[C@@H]3C[C@@H]32)c2oc3ccccc3c2n1 [Compound 54, (1S,3S,5S)-2-(2-methylbenzofuro[3,2-d]pyrimidin-4-yl)-2-azabicyclo[3.1.0]hexane-3-carboxylic acid] | 1000 to 10000 | 1000 to 10000 | – |
| Cc1nc(N2C[C@@H](NC(=O)Cc3c[nH]cn3)C[C@H]2C(=O)O)c2oc3ccccc3c2n1 [Compound 40, (2S,4S)-4-(2-(1H-imidazol-4-yl)acetamido)-1-(2-methylbenzofuro[3,2-d]pyrimidin-4-yl)pyrrolidine-2-carboxylic acid] | – | 500 to 1000 | – |
| Cc1nc(N2C[C@@H](NC(=O)C(C)(C)c3ccnc(C(F)(F)F)c3)C[C@H]2C(=O)O)c2oc3ccccc3c2n1 [Compound 61, (2S,4S)-4-(2-methyl-2-(2-(trifluoromethyl)pyridin-4-yl)propanamido)-1-(2-methylbenzofuro[3,2-d]pyrimidin-4-yl)pyrrolidine-2-carboxylic acid] | 1000 to 10000 | 500 to 1000 | – |
| O=C(O)[C@@H]1CCCN1c1nc(-c2ccncc2)nc2c1oc1ccccc12 [Compound 18, (2-(pyridin-4-yl)benzofuro[3,2-d]pyrimidin-4-yl)-L-proline] | > 10000 | > 10000 | – |
| O=C(O)C1CCCN(c2ncnc3c2oc2ccccc23)C1 (centres unmarked) [Compound 6, 1-(benzofuro[3,2-d]pyrimidin-4-yl)piperidine-3-carboxylic acid] | > 10000 | > 10000 | – |
| Cc1nc(N2C[C@@H](NC(=O)C(C)(C)c3cn[nH]c3)C[C@H]2C(=O)O)c2oc3ccccc3c2n1 [Compound 66, (2S,4S)-4-(2-methyl-2-(1H-pyrazol-4-yl)propanamido)-1-(2-methylbenzofuro[3,2-d]pyrimidin-4-yl)pyrrolidine-2-carboxylic acid] | 1000 to 10000 | 100 to 500 | – |
| Cc1nc(N2C[C@@H](Nc3n[nH]cc3C(C)C)C[C@H]2C(=O)O)c2oc3ccccc3c2n1 [Compound 59, (2S,4S)-4-((4-isopropyl-1H-pyrazol-3-yl)amino)-1-(2-methylbenzofuro[3,2-d]pyrimidin-4-yl)pyrrolidine-2-carboxylic acid] | 1000 to 10000 | 100 to 500 | – |

The remaining lines, values ahead:

| IC50 [1] [nM] | IC50 (read-out: Inhibition cGAS) [nM] | Inhibition cGAS | Structure (SMILES) |
| --- | --- | --- | --- |
| – | 500 to 1000 | – | Cc1nc(N2C[C@@H](NC(=O)Cc3cccnc3N)C[C@H]2C(=O)O)c2oc3ccccc3c2n1 [Compound 49, (2S,4S)-4-(2-(2-aminopyridin-3-yl)acetamido)-1-(2-methylbenzofuro[3,2-d]pyrimidin-4-yl)pyrrolidine-2-carboxylic acid] |
| – | 100 to 500 | – | Cc1nc(N2C[C@@H](NC(=O)C(C)(C)c3ccncc3)C[C@H]2C(=O)O)c2oc3ccccc3c2n1 [Compound 29, (2S,4S)-4-(2-methyl-2-(pyridin-4-yl)propanamido)-1-(2-methylbenzofuro[3,2-d]pyrimidin-4-yl)pyrrolidine-2-carboxylic acid] |
| – | 500 to 1000 | – | Cc1nc(N2C[C@@H](N(C)C(=O)Cc3ccncc3)C[C@H]2C(=O)O)c2oc3ccccc3c2n1 [Compound 60, (2S,4S)-4-(N-methyl-2-(pyridin-4-yl)acetamido)-1-(2-methylbenzofuro[3,2-d]pyrimidin-4-yl)pyrrolidine-2-carboxylic acid] |
| – | 500 to 1000 | – | Cc1nc(N2C[C@@H](NC(=O)Cc3ncc[nH]3)C[C@H]2C(=O)O)c2oc3ccccc3c2n1 [Compound 36, (2S,4S)-4-(2-(1H-imidazol-2-yl)acetamido)-1-(2-methylbenzofuro[3,2-d]pyrimidin-4-yl)pyrrolidine-2-carboxylic acid] |
| 1000 to 10000 | 1000 to 10000 | – | Cc1nc(N2C[C@@H](N(C)c3n[nH]cc3C)C[C@H]2C(=O)O)c2oc3ccccc3c2n1 [Compound 64, (2S,4S)-4-(methyl(4-methyl-1H-pyrazol-3-yl)amino)-1-(2-methylbenzofuro[3,2-d]pyrimidin-4-yl)pyrrolidine-2-carboxylic acid] |
| – | 500 to 1000 | – | Cc1cncc(CC(=O)N[C@H]2C[C@@H](C(=O)O)N(c3nc(C)nc4c3oc3ccccc34)C2)c1 [Compound 42, (2S,4S)-1-(2-methylbenzofuro[3,2-d]pyrimidin-4-yl)-4-(2-(5-methylpyridin-3-yl)acetamido)pyrrolidine-2-carboxylic acid] |
| > 10000 | 1000 to 10000 | – | Cc1cc(CC(=O)N[C@H]2C[C@@H](C(=O)O)N(c3nc(C)nc4c3oc3ccccc34)C2)ccn1 [Compound 67, (2S,4S)-1-(2-methylbenzofuro[3,2-d]pyrimidin-4-yl)-4-(2-(2-methylpyridin-4-yl)acetamido)pyrrolidine-2-carboxylic acid] |
| – | 100 to 500 | – | Cc1nc(N2C[C@@H](NC(=O)Cc3ccc(N)nc3)C[C@H]2C(=O)O)c2oc3ccccc3c2n1 [Compound 33, (2S,4S)-4-(2-(6-aminopyridin-3-yl)acetamido)-1-(2-methylbenzofuro[3,2-d]pyrimidin-4-yl)pyrrolidine-2-carboxylic acid] |
